Assay results: patent publication US8207137B2, “Method of inhibiting angiogenesis or invasion or formation of metastases” (INSERM, priority 2001, dated 2012)

Columns and labels:
[1] = tested on: CPAE cells; test: Formation of capillary structures in fibrin gel, cell aggregates model; assay type: cell-based, bovine; conditions: 5 μg/ml or 10 μg/ml, 3 days of incubation
Experimental: One of the models used the aggregates of CPAE cells according to the method described by Pepper et al., 1991. In brief, 10,000 CPAE were aggregated for 24 hours on 2% agarose on a 96-well plate. Three aggregates collected and incorporated in a fibrin gel: purified fibrinogen (3 mg/ml; Kabi) was dialyzed against MEM medium then mixed with 20% of FCS, 1% of L-glutamine, 1% of penicillin/streptomycin, 2 μM of aprotinin and AMEP at the desired concentration. Human thrombin (1 IU/ml; Sigma) was then added to obtain a fibrin gel to the surface of which was added the complete medium supplemented by aprotinin (2 μM), with this medium being changed every three days. Formation of capillary structures could be observed after 24 hours of culture. These capillaries were photographed under reverse microscope and the size of these structures was measured on the photographs. The statistical analysis (Mann-Whitney method) made it possible to determine whether the size of these structures was different.

[2] = tested on: CPAE; test: Cell proliferation, tritiated thymidine incorporation; assay type: cell-based, Bovine
Experimental: (§1) The cells were cultured at the rate of 20,000 cells per well (96-well plate, Greiner) in the complete medium. After 24 h, the cells were cultured in a medium containing a concentration lower by half than that corresponding to the complete medium to induce the cell in phase G0/G1 of proliferation for 24 supplementary hours. The cells were then cultured for 30 h with complete medium in the presence or without the presence of AMEP. Tritiated thymidine (1 μCi per well) was then added to the cells and incubated for 18 hours. Incorporation of the tritiated thymidine by the cells was quantified by filter paper according to the protocol described for the use of a Skatron (Skatron, Lier, Norway). Radioactivity was then determined by counting after addition of scintillation liquid. The results were expressed as a percentage in relation to the control.

[3] = tested on: CPAE cells; test: Model of endothelial cell migration (agarose, 24-well plates); assay type: cell-based, bovine
Experimental: The migration model was implemented in 24-well plates. 1.5% agarose was dissolved in the culture medium to form a gel in the wells. Half of an agarose cylinder was then inserted in a well. The CPAE cells were added to the free space left in the well and cultured until their confluence. The piece of agarose was then removed to allow the cells to migrate and AMEP was added, at the desired concentrations, to the culture medium. Then, a transparent graph paper was placed under the plate to determine the migration rate of the cells using an ocular micrometer under reverse microscope. The experiments were performed in duplicate and repeated three times. The results were expressed in percentage in relation to the control.

[4] = tested on: HMVEC; test: Cell proliferation, tritiated thymidine incorporation; assay type: cell-based; conditions: human endothelial cells, mean±SEM
Experimental: as §1

[5] = tested on: MDA-MB-231; test: as above; assay type: cell-based; conditions: MDA-MB-231, human cancer cells, mean±SEM
Experimental: as §1

[6] = tested on: HMVEC-d; test: as above; assay type: cell-based; conditions: human endothelial cells, mean±SEM
Experimental: as §1

[7] = tested on: 3T3; test: as above; assay type: cell-based; conditions: 3T3, murine fibroblasts, mean±SEM
Experimental: as §1

[8] = tested on: C51; test: as above; assay type: cell-based; conditions: C51, murine cancer cells, mean±SEM
Experimental: as §1

[9] = tested on: MDA MB 231 cells; test: Athymic murine model of tumor growth; assay type: in vivo; conditions: nude mice, MDA MB 231 tumors; AMEP expressed in muscle after gene electrotransfer, doxycycline induction; after 14 days of treatment
From the text: The cDNA of AMEP was subcloned at the Eco RV site of the vector pBi (Clonetech, Palo Alto, Calif., USA). The expression of the gene of interest in this vector was under the dependence of a promoter responding to tetracycline in an expression system involving the eukaryote gene Tet-On. The Tet-On vector expresses the transactivator rtTA (reverse tetracycline transcriptional activator) and the vector Tet-tTS expresses the silencer tTS (tetracycline transcriptional silencer). The purifications of the plasmids were performed in a manner such that no endotoxin was present (Maxi endo free Kit, Quiagen). The purified plasmid DNA was dissolved in endotoxin-free sterile 0.9% NaCl at the desired concentration.
20 μg of plasmid pBi-AMEP, 10 μg of plasmid Tet-off and 20 μg of plasmid Tet-on were dissolved in 30 μl of sterile 0.9% NaCl and injected into the tibia cranial muscle of nude or C57B1/6 mice aged 8 weeks and previously anesthetized by intraperitoneal inoculation of pentobarbital as described by Mir et al. (Mir et al., 1999). […]
The MDA-MB-231 cells, which had been previously cultured to 80% confluence, were detached, washed and resuspended in PBS at the rate of 20·10^6 cells/ml. […] The size of the tumors was monitored for 14 days after induction.

[10] = tested on: HMEC-1 cells; test: Formation of capillary structures in fibrin gel, Cytodex beads model; assay type: cell-based, human
Experimental: The second model used beads on the order of 150 μm according to the technique described by Nehl et al. The cells used were HMEC-1 since CPAE could not be used in this model. The HMEC-1 cells cannot, however, be employed in the previously described model. The HMEC-1 cells adhere to the Cytodex 3 beads (Sigma) when the cells are incubated with the beads in the complete medium for 4 h at 37° C. The beads were then resuspended in a large volume of complete medium to have 30 cells/beads and agitated for 5 minutes every 30 minutes at 30 rpm for 12 h, followed by a continuous culture at the same rate for 4 days. When the entire surface of the beads was covered by cells, the beads were centrifuged at 800 g for 5 minutes to concentrate and incorporate them in a fibrin gel the same as that described for the preceding model, and the same as the methods of quantification and analysis of the results. In contrast to the model used for the CPAE, the capillary structures only appeared after 3 days of culture at 37° C.

Substance: AMEP: disintegrin domain of human metargidin (Met-420 to Glu-511, SEQ ID NO. 2), 91 amino acids, 9.7 kDa; recombinant or expressed in vivo by gene electrotransfer
- effect on capillary structures [1]: disorganization of capillary structures
- inhibition of proliferation of endothelial cells ([2]; 2 μg/ml): 40%
- inhibition of proliferation of endothelial cells ([2]; 5 μg/ml (maximal effect)): 60%
- inhibition of proliferation of endothelial cells ([2]; 10 μg/ml, compared with 60% at 5 μg/ml): identical percentage
- % inhibition of cell proliferation by AMEP (5 μg/ml) ([2]; bovine endothelial cells, 5 μg/ml, mean±SEM): 60.4 ± 3.2%
- number of dead endothelial cells (floating in the culture medium) ([3]; 10 μg/ml, phase-contrast microscope (FIG. 3)): augmentation of the number of dead endothelial cells
- inhibition of cell migration ([3]; CPAE, 10 μg/ml): complete inhibition
- effect on the displacement rate of the cells ([3]; CPAE, 2-10 μg/ml): dose dependent
- % inhibition of cell proliferation by AMEP (5 μg/ml) [4]: 52.6 ± 3.1%
- % inhibition of cell proliferation by AMEP (5 μg/ml) [5]: 17.5 ± 0.5%
- % inhibition of cell proliferation by AMEP (5 μg/ml) [6]: 54.2 ± 2.1%
- % inhibition of cell proliferation by AMEP (5 μg/ml) [7]: 9.1 ± 2.2%
- % inhibition of cell proliferation by AMEP (5 μg/ml) [8]: 0.5 ± 1.1%
- inhibition of tumor volume [9]: 78%
- reduction in the size of the tubes (capillary structures) ([10]; HMEC-1 on beads in fibrin gel, 5 μg/ml, after 10 days): 90%
- effect on formation of capillary structures ([10]; HMEC-1 on beads in fibrin gel, 5 μg/ml, after three days of culture): inhibitory effect
- formation of capillary structures ([10]; model using HMEC-1, in the presence of AMEP): total inhibition
